# In US20130102081A1, “Detection and Characterization of Protein Degradation, Protein Degradation Modulation and Protein Degradation Modulators” (priority 2011, published 2013):
# Biological target: T1, trypsin (Bos taurus, UniProt P00760)
# T1 construct: gene PRSS1
# T1 sequence (P00760 24-246): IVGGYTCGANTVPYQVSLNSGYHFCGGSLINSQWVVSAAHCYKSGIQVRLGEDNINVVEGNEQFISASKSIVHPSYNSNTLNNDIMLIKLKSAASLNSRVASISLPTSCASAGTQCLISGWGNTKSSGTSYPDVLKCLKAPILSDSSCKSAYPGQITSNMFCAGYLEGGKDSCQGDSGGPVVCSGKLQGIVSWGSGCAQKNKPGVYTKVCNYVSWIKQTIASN
# Assay: EMR spectroscopy of spin-labeled BSA degradation by the protease trypsin, with and without modulators
# Format: biochemical
# Conditions: EMR peak height versus time, compared with protease alone
# Text: The spin label is attached to a protein and the control or un-degraded protein EMR spectrum recorded. Degradation of the protein by any degradation mechanism creates products with predictably different angular mobility than that of the control. […] Degradation is further characterized through quantitative analysis of the product and reactant subpopulations. Modulation of that degradation, regardless of the mechanism of modulation, can be expressed in a variety of ways, only one of which is an alteration in concentration of the degradation subpopulations. For example, inhibition of degradation is expressed by a reduction in concentration of relatively mobile subpopulation(s), degradation promotion by an increase in the mobile subpopulation. Chemical, biochemical and biological entities are readily tested for their potential as modulators.
# Shown are EMR spectra of spin-labeled bovine serum albumin (BSA, spin label attached to BSA under conditions which favor attachment to a sulfhydryl). Key features of the intact protein's spectrum are denoted by the numbers 1 and 5. At 7, 21 and 40 minutes (spectra 2, 3 and 4 respectively) following the addition of the protease, trypsin, a second, more mobile, product population appears, characterized by three, relatively sharp peaks superimposed on the spectrum of the intact protein. Protein degradation is clearly expressed with products expressing more rapid angular mobility than reactants. Both reactant and product subpopulations are apparent in the spectra with the growth of the product population matched by a concomitant loss of reactants. Subpopulation spectra are amenable to further analyses in accord with practices associated with the selected observation method.
# Shown are four EMR spectra (6, 7, 8, 9) for conditions identical to those in FIG. 1 of 5 with the exception that trypsin inhibitor is present. The presence and action of the modulator is clear and unambiguous.
# Shown is the concentration of products, as reflected in the heights of the rightmost peaks labeled 1, 2, 3, and 4 in FIG. 1 of 5, versus time. […]
row,Compound,modulation of protein degradation (time course of appearance of the mobile product subpopulation)
1,Cc1c(O)cccc1C(=O)N[C@@H](CSc1ccccc1)[C@H](O)CN1C[C@H]2CCCC[C@H]2C[C@H]1C(=O)NC(C)(C)C [Nelfinavir],promotion of degradation
2,CC(C)C[C@H](NC(=O)[C@@H](NC(=O)N[C@@H](Cc1ccccc1)C(=O)O)[C@@H]1CCN=C(N)N1)C(=O)N[C@H](C=O)Cc1ccccc1 [chymostatin],Modulation of protein degradation is clear
3,leupeptin hemisulfate,Modulation of protein degradation is clear
